Test results reported in ChEMBL document CHEMBL3112541 (Bioorg Med Chem, 2014).

How the values were obtained:
Carbonic anhydrase 1 = Carbonic anhydrase 1 (Homo sapiens, UniProt P00915)
Description: Inhibition of human cytosolic carbonic anhydrase 1 by stopped-flow CO2 hydration assay

Carbonic anhydrase 12 = Carbonic anhydrase 12 (Homo sapiens, UniProt O43570)
Description: Inhibition of human transmembrane carbonic anhydrase 12 by stopped-flow CO2 hydration assay

Carbonic anhydrase 9 = Carbonic anhydrase 9 (Homo sapiens, UniProt Q16790)
Description: Inhibition of human transmembrane carbonic anhydrase 9 by stopped-flow CO2 hydration assay

Carbonic anhydrase 2 = Carbonic anhydrase 2 (Homo sapiens, UniProt P00918)
Description: Inhibition of human cytosolic carbonic anhydrase 2 by stopped-flow CO2 hydration assay

Chain of Carbonic anhydrase 1 (P00915 whole entry): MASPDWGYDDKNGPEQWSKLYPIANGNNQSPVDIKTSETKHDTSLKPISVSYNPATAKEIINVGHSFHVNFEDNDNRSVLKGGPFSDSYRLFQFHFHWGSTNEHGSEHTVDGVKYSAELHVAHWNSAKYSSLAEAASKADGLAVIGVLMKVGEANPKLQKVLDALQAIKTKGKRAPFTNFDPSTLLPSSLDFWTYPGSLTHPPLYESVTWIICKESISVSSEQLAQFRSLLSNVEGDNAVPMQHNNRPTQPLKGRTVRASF
Chain of Carbonic anhydrase 12 (O43570 whole entry): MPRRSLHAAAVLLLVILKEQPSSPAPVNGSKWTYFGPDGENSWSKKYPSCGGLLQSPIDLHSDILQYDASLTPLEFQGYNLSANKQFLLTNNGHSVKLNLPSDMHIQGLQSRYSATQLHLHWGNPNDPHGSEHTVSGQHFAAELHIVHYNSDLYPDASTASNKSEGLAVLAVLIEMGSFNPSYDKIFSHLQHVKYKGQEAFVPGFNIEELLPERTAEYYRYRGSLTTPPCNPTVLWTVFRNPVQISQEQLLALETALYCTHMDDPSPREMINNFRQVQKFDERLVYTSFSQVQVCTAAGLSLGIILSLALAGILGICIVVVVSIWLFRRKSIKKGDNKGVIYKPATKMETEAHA

**Q.** For `NS(=O)(=O)c1ccccc1N1C(=O)c2cccc([N+](=O)[O-])c2C1=O`, which Ki (Carbonic anhydrase 1) is on record?
**A.** > 10 µM

**Q.** And the Ki (Carbonic anhydrase 12)?
**A.** > 10 µM

**Q.** And the Ki (Carbonic anhydrase 9)?
**A.** 7.82 µM

**Q.** Which Ki (Carbonic anhydrase 9) does the source give for `NS(=O)(=O)c1ccc(CN2C(=O)c3ccc([N+](=O)[O-])cc3C2=O)cc1` here?
**A.** 8.84 µM

**Q.** Which Ki (Carbonic anhydrase 1) does the source give for `NS(=O)(=O)c1ccccc1N1C(=O)c2ccc([N+](=O)[O-])cc2C1=O` here?
**A.** > 10 µM

**Q.** And the Ki (Carbonic anhydrase 2)?
**A.** > 10 µM

**Q.** What about the Ki (Carbonic anhydrase 9) of the same compound?
**A.** > 10 µM

**Q.** With `NS(=O)(=O)c1ccc(CCN2C(=O)c3ccc([N+](=O)[O-])cc3C2=O)cc1` as the compound, how does the Ki (Carbonic anhydrase 9) read?
**A.** > 10 µM

**Q.** `NS(=O)(=O)c1cccc(N2C(=O)c3ccc([N+](=O)[O-])cc3C2=O)c1` was tested. Which Ki (Carbonic anhydrase 9) did it give?
**A.** 10 µM

**Q.** For `NS(=O)(=O)c1cccc(N2C(=O)c3cccc([N+](=O)[O-])c3C2=O)c1`, which Ki (Carbonic anhydrase 9) is on record?
**A.** 8.35 µM

**Q.** Which Ki (Carbonic anhydrase 9) does the source give for `NS(=O)(=O)c1ccc(CN2C(=O)c3cccc([N+](=O)[O-])c3C2=O)cc1` here?
**A.** 0.873 µM

**Q.** For `NS(=O)(=O)c1ccc(N2C(=O)c3ccc([N+](=O)[O-])cc3C2=O)cc1`, which Ki (Carbonic anhydrase 9) is on record?
**A.** 8.65 µM
